Data taken from ChEMBL document CHEMBL1201862, “PubChem BioAssay data set” (2004).
Activity calls are given as the source filed them.

Key:
[1] = target: Cytochrome P450 2C9 (Homo sapiens, UniProt P11712)
[2] = target: Cytochrome P450 3A4 (Homo sapiens, UniProt P08684);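 further: CYP3A4 tested as one member of a cytochrome P450 panel screen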
[3] = target: Troponin, cardiac muscle (Homo sapiens, UniProt P19429+P45379+P63316); assay: Fluorescence-based biochemical high throughput dose response assay for activators of the calcium sensitivity of cardiac Regulated Thin Filaments (RTF). [Related pubchem assays (depositor defined):AID493008, AID493018, AID504382, AID504383]; format: protein-complex assay
[4] = target: T1, Endoribonuclease toxin MazF (Escherichia coli K-12, UniProt P0AE70); assay: activation of MazEF endoribonuclease cleavage – biochemical, fluorescence, single-stranded RNA substrate, uHTS hits, dose response (AID 588481); format: functional
T1 sequence (P0AE70 whole entry): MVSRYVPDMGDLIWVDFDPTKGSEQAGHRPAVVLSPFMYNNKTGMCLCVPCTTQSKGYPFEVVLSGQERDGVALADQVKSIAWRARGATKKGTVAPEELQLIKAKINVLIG

[5] = target: T1, Endoribonuclease toxin MazF; assay: substrate-only fluorescence increase artefacts – biochemical, single-stranded RNase substrate, counter-screen for MazEF activator project, dose response (AID 588502); format: functional
[6] = Luminescence Cell-Based Dose Response HTS to Identify Activators of Luciferase Translation or Activity in H4 […] Cells. [Related pubchem assays: 1829 (Project Summary), 1814 (Primary HTS)]; format: functional
[7] = system: H4; assay: Luminescence Cell-Based Dose Response HTS to Identify Activators of 5'UTR Stem-Loop Driven Prion Protein mRNA Translation in H4 Neuroglioblastoma Cells. [Related pubchem assays: 1829 (Project Summary), 1814 (Primary HTS)]; format: functional; conditions: Homo sapiens
[8] = system: HeLa; assay: ATP-based viability loss in HeLa cells – cell-based, CellTiter-Glo luminescence, cherry-pick samples, cytotoxicity control for MITF activator project, dose response (AID 540259); format: functional; conditions: Homo sapiens
[9] = target: Glyceraldehyde-3-phosphate dehydrogenase (Homo sapiens, UniProt P04406)
Chain of Glyceraldehyde-3-phosphate dehydrogenase (P04406 whole entry): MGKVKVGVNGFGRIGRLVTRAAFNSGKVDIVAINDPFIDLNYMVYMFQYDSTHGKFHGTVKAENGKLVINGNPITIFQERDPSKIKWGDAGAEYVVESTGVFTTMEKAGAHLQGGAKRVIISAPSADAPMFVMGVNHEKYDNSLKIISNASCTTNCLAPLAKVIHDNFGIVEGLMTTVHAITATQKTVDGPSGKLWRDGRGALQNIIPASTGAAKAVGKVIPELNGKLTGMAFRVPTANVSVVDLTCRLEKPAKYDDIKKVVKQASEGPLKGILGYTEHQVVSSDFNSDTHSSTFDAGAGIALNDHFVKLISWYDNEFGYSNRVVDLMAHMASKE

[10] = target: T2, Alkaline phosphatase, tissue-nonspecific isozyme (Homo sapiens, UniProt P05186); assay: potency against alkaline phosphatase TNAP – biochemical, luminescent, dose response, SAR follow-up (AID 1056)
T2 sequence (P05186 whole entry): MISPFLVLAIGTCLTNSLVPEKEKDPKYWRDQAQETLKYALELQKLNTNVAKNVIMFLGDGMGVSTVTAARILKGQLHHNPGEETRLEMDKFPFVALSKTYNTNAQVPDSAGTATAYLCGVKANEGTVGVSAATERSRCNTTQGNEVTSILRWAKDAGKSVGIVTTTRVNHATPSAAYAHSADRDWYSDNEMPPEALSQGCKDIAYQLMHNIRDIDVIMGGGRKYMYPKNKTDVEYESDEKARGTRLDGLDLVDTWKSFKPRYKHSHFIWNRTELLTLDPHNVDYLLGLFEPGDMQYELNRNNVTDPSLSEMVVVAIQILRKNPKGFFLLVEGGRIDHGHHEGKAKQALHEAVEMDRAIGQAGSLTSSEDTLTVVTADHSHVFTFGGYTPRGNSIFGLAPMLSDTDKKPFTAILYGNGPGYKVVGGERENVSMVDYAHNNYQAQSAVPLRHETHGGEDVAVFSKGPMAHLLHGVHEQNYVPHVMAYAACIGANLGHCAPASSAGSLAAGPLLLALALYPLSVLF

[11] = system: Vero; assay: cells; format: functional; conditions: Chlorocebus sabaeus
[12] = A549 cell cytotoxicity, dose response, cytotoxicity control, plate reader, cherry-pick, antagonist series (AID 743412); format: functional, cell-based
[13] = toxicity toward HepG2 liver cells – cell-based, plate reader, cherry-pick, antagonist series, cytotoxicity control, dose response (AID 743416); format: functional
[14] = blockers of bursicon-stimulated LGR2 cAMP reporter – cell-based, HEK293, CRE-luciferase reporter, cherry pick, set 2, dose response (AID 743343); format: functional;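 further: transfected cells were stimulated with diluted bursicon conditioned medium after compound addition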
[15] = blockade of melanocortin 4 receptor signaling – cell-based, plate reader, cherry pick, counter-screen for LGR2 antagonist project, dose response (AID 743444); format: functional;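 further: transfected HEK 293 cells stimulated with alpha-MSH peptide; potency of inhibitors of the alpha-MSH evoked signal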
[16] = viability loss in HEK293 cells – cell-based, plate reader, cherry-picked samples, cytotoxicity control, dose response (AID 743446); format: functional
[17] = system: HEK293; assay: EBV LMP1 TES2 canonical NF-kB signalling blockers – cell-based, HEK293, luciferase, cherry-pick, dose response (AID 588343); format: functional; conditions: Homo sapiens

Chain of Cytochrome P450 3A4 (P08684 whole entry): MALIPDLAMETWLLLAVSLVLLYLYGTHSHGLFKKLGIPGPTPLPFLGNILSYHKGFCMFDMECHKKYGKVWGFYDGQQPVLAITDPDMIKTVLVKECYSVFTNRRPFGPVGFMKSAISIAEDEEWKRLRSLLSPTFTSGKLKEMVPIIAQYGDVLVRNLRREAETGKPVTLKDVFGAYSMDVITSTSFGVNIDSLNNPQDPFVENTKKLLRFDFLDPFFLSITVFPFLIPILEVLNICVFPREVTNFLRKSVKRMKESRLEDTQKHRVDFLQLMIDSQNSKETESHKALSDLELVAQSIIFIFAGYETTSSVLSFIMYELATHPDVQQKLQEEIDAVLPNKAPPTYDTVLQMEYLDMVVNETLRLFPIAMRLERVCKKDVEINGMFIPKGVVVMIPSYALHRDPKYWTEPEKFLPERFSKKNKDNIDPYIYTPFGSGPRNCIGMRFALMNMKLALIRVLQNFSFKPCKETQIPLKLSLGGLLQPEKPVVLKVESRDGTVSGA
Chain of Cytochrome P450 2C9 (P11712 whole entry): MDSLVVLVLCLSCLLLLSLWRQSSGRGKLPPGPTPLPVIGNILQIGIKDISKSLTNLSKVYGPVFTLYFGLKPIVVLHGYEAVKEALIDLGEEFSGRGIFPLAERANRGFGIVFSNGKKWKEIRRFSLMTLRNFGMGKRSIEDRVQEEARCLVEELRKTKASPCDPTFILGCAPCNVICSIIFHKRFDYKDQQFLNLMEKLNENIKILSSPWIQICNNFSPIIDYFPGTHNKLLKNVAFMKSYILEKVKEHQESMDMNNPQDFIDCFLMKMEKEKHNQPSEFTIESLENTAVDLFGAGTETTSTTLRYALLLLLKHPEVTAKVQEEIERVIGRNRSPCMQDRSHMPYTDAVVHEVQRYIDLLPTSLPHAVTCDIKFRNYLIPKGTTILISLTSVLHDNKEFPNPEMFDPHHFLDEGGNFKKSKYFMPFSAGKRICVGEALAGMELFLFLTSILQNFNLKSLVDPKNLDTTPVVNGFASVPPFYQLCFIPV

Cn1c(=N)c(S(=O)(=O)c2ccc(F)cc2)cc2c(=O)n3ccccc3nc21
AC50 [1]: 17.8 µM (inconclusive) | AC50 [2]: inconclusive

Cc1ccccc1-n1nnnc1SCC(C)C
EC50 [3]: > 71.5 µM (inactive)

COc1cc(OC)c(OC)cc1/C=C(\C#N)C(=O)NCc1cccs1
EC50 [4]: > 99 µM (inactive) | EC50 [5]: > 99 µM (inactive)

Cn1c(C(=O)NCCc2c[nH]c3ccccc23)cc2sccc21
EC50 [6]: 21.7 µM (active) | EC50 [7]: 14.7 µM (active) | AC50 [8]: 239 µM (active)

COc1ccc(S(=O)(=O)Nc2cnc3ccccc3c2)cc1OC
IC50 [9]: > 100 µM (not active) | IC50 [10]: > 100 µM (inactive)

O=C(Cc1nc2ccccc2[nH]1)c1cccc([N+](=O)[O-])c1
CC50 [11]: 6.19 µM (active) | AC50 [12]: 20.7 µM (active) | AC50 [13]: 11.2 µM (active) | AC50 [14]: 4.47 µM (active) | AC50 [15]: 5.45 µM (active) | AC50 [16]: 12.1 µM (active)

COc1ccc(-c2cc(C(=O)N3CCCC3)no2)cc1
AC50 [17]: 3.97 µM (active) | AC50 [14]: 5.07 µM (active) | AC50 [15]: 5.22 µM (active)

Cn1c2ccccc2c(=O)c2ccc(-c3ccc4c(c3)OCO4)cc21
AC50 [8]: 46.6 µM (active)

O=C(CCNc1ccccc1)c1ccc2c(c1)OCO2
AC50 [8]: 111 µM (active)

COC(=O)N1CCC2(CC1)CCN(c1ncccn1)CC2
AC50 [2]: inconclusive
